From ChEMBL document CHEMBL3044644, “Syntheses and antiproliferative activity of some sulfated hydroximinosterols” (Med Chem Res, 2013)

How the values were obtained:
Assay type in all cases: functional, cell-based
[1] = Cytotoxicity against Homo sapiens (human) MGC7901 cells assessed as cell viability after 72 hr by MTT assay
[2] = Cytotoxicity against Homo sapiens (human) SMMC-7404 cells assessed as cell viability after 72 hr by MTT assay
[3] = system: HeLa; test: Cytotoxicity against Homo sapiens (human) HeLa cells assessed as cell viability after 72 hr by MTT assay

| SMILES | IC50 [1] [µM] | IC50 [2] [µM] | IC50 [3] [µM] |
| --- | --- | --- | --- |
| CC(C)CCC[C@@H](C)[C@H]1CC[C@H]2[C@@H]3C/C(=N/O)C4C[C@@H](OS(=O)(=O)[O-])CC[C@]4(C)[C@H]3CC[C@]12C.[Na+] (some centres not stated) | 6.5 | 12.9 | 9.6 |
| CC[C@H](/C=C/[C@@H](C)[C@H]1CC[C@H]2[C@@H]3C/C(=N/O)C4C[C@@H](OS(=O)(=O)[O-])CC[C@]4(C)[C@H]3CC[C@]12C)C(C)C.[Na+] (some centres not stated) | 27.7 | > 100 | 14.3 |
| CC(C)CCC[C@@H](C)[C@H]1CC[C@H]2[C@@H]3C/C(=N/O)C4=C[C@@H](OS(=O)(=O)[O-])CC[C@]4(C)[C@H]3CC[C@]12C.[Na+] | > 100 | 62.2 | 25.3 |
| CC(C)CCC[C@@H](C)[C@H]1CC[C@H]2[C@@H]3C[C@H](OS(=O)(=O)[O-])C4C/C(=N/O)CC[C@]4(C)[C@H]3CC[C@]12C.[Na+] (some centres not stated) | 33.3 | 10.2 | 12.5 |
